One may read the half-life as the time in which the quantity being followed falls by half. By solubility is commonly meant how much of the substance goes into solution per volume. The AUC(0-t) is the area under the concentration-time curve up to a stated or last time point. Broadly, the Cmax is the peak of the concentration-time curve. Usually bioavailability stands for the share of a dose that reaches the circulation, judged against a reference dose that is usually intravenous. Higher therefore signals much systemic uptake. Broadly, the Vd is a proportionality between amount in the body and measured concentration, not a real space. Low values mean confinement near the circulation, high ones extensive tissue distribution. In general, clearance refers to the volume of plasma or blood freed of the substance per unit of time. The Papp A→B is how fast a substance crosses the layer from the apical side. Higher therefore signals fast passage. Usually Papp B→A stands for how fast a substance crosses the layer from the basolateral side.

The test system of data set [1] is cocaine-seeking behavior. To be noted: cited from earlier work.
The subject of data set [2] is ALDH2. To be noted: read-out: ALDH2 inhibition; cited from earlier work.
For data set [3], the target named is T1, hALDH1A1 (Homo sapiens, UniProt P00352).
T1 sequence (P00352 1-501): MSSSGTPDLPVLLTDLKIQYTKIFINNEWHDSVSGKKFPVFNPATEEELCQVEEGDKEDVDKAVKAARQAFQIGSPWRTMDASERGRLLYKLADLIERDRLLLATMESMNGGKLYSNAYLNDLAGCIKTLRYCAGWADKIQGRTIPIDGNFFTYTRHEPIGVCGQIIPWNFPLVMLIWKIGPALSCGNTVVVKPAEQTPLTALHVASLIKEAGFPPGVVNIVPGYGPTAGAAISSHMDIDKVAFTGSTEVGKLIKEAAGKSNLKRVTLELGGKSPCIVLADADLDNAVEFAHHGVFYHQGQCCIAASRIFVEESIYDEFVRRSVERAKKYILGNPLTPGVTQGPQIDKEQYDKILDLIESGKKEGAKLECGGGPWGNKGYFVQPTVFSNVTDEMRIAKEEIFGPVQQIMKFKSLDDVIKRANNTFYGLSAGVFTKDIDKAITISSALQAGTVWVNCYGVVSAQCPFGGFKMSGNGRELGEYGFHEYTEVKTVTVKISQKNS
Nature of the data set: biochemical.

The nature of data set [4]: High-throughput RLM stability. The class given is in vitro ADME. To be noted: rat, rat liver microsomes, pH 7.4. A general note: Microsomes from liver hold many membrane-bound enzymes, among them those of drug oxidation.
For data set [5], the target named is T1, hALDH1A1. Nature of the data set: Primary qHTS against hALDH1A1. It counts as biochemical. Background: Quantitative high-throughput screening tests each substance at several concentrations.
Data set [6] can be described thus: physchem. To be noted: aqueous medium at pH 7.4, pH 7.4, aqueous buffer, kinetic from dmso stock.
Data set [7] has as its target T2, human ALDH1B1 (Homo sapiens, UniProt P30837).
T2 sequence (P30837 18-517): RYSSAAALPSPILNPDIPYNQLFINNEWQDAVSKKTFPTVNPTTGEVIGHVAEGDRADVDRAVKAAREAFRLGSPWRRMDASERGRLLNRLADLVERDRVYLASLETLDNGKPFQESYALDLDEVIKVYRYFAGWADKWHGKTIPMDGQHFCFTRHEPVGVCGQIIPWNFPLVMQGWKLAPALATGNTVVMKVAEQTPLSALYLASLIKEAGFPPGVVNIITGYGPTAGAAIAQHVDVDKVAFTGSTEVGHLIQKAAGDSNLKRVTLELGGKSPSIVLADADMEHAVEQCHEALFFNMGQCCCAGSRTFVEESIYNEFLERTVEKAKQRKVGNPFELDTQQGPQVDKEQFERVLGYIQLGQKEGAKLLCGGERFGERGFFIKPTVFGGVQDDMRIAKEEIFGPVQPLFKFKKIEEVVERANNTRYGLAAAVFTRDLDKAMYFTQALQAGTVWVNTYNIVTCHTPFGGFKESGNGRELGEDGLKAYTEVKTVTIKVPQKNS
Briefly: biochemical.

In data set [8] the target is T3, human ALDH2 (Homo sapiens, UniProt P05091).
T3 sequence (P05091 18-517): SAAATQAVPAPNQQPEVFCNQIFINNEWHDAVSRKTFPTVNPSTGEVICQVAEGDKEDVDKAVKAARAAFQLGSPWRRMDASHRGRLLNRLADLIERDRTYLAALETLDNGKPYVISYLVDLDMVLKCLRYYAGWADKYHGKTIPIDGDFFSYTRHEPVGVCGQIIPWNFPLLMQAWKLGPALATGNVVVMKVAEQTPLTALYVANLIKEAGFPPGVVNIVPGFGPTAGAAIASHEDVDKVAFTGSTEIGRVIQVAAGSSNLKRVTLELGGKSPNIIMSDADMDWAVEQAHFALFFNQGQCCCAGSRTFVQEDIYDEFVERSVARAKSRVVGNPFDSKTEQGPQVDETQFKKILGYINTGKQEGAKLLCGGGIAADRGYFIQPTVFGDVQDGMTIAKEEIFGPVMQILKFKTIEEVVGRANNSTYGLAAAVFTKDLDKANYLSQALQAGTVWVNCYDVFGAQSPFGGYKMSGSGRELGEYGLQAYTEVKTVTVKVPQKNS
Nature of the data set: ALDH enzymatic assay, ALDH2. It counts as biochemical.

Data set [9] relates to 168 GPCRs covering 60 receptor families. Briefly: gpcrMAX panel profiling. The class given is cell-based. To be noted: agonist and antagonist mode.
The subject of data set [10] is more than 450 human kinases. Nature of the data set: DiscoveRx KINOMEscan off-target kinase profiling. The class given is binding. To be noted: 10 µM, hit = inhibition of ≥55%.
Data set [11] can be described thus: Plasma protein binding. It counts as in vitro ADME.
Data set [12] can be described thus: CD1 mouse liver microsomal stability. The class given is in vitro ADME. To be noted: mouse liver microsomes.
Data set [13] is described as follows: Pharmacokinetics in CD1 mice. It counts as in vivo. To be noted: CD1, mouse.
The nature of data set [14]: Caco-2 permeability. The class given is in vitro ADME. To be noted: human. On the technique in general: Caco-2 cells form a polarised layer with tight junctions and transporters.
Data set [15] in a line: In vitro stability in CD1 mouse plasma. The class given is in vitro ADME.
The nature of data set [16]: Multipoint rat liver microsomal stability. The class given is in vitro ADME.
The conditions of data set [17]: microsomes.

On to `CS(=O)(=O)Nc1ccc(-c2coc3cc(OCc4cccc(C(=O)O)c4)ccc3c2=O)cc1` [Compound 1], for which, in data set [1], the “reduction of cocaine-seeking behavior” value was “demonstrated activity in the reduction of cocaine-seeking behavior”. Moreover, the IC50 in [2] is 29 nM.

For the compound `CCOC(=O)N1CCN(Cc2nc3c(c(=O)n(C)c(=O)n3C)n2Cc2cccc(C)c2)CC1` [Compound 5, ethyl 4-((1,3-dimethyl-7-(3-methylbenzyl)-2,6-dioxo-2,3,6,7-tetrahydro-1H-purin-8-yl)methyl)piperazine-1-carboxylate], the IC50 in data set [3] was 40 ± 5 nM; in data set [5], 84 nM; in [7], > 57000 nM; in [8], 2400 nM. Besides, the half-life at 1 µM in [4] came out at 5 min. Further, the solubility in [6] is > 62 µg/mL.

Compound `CCOC(=O)N1CCN(c2nc3c(c(=O)n(C)c(=O)n3C)n2Cc2cccc(C)c2)CC1` [Compound 11, Ethyl 4-(1,3-Dimethyl-7-(3-methylbenzyl)-2,6-dioxo-2,3,6,7-tetrahydro-1H-purin-8-yl)piperazine-1-carboxylate] gave an IC50 in [3] of 570 ± 156 nM. Besides, the half-life at 1 µM in data set [4] was 2 min.

For the compound `CNC(=O)c1ccc(Oc2nc3c(c(=O)n(C)c(=O)n3C)n2Cc2cccc(C)c2)cc1` [Compound 12, 4-((1,3-dimethyl-7-(3-methylbenzyl)-2,6-dioxo-2,3,6,7-tetrahydro-1H-purin-8-yl)oxy)-N-methylbenzamide], the figures for the IC50 in [3], in data set [7] and in data set [8] were 57 nM, > 57000 nM and 6100 nM, respectively. The compound also registered a half-life at 1 µM in data set [4] of 8 min. Also, in data set [6], the solubility was < 1 µg/mL.

Turning to `Cc1cccc(Cn2c(OC3CCNCC3)nc3c2c(=O)n(C)c(=O)n3C)c1` [Compound 14, 1,3-dimethyl-7-(3-methylbenzyl)-8-(piperidin-4-yloxy)-1H-purine-2,6(3H,7H)-dione], in data set [3], the IC50 was 13700 ± 4900 nM. The compound also displayed a half-life at 1 µM in data set [4] of 21 min.

`Cc1cccc(Cn2c(OC3CCN(c4nccc(C)n4)CC3)nc3c2c(=O)n(C)c(=O)n3C)c1` [Compound 19, 1,3-dimethyl-7-(3-methylbenzyl)-8-((1-(4-methylpyrimidin-2-yl)-piperidin-4-yl)oxy)-1H-purine-2,6(3H,7H)-dione] registered an IC50 in data set [3] of 19200 ± 3300 nM. The same compound displayed a half-life at 1 µM in data set [4] of 1 min.

In [3], `Cn1c(=O)c2c(nc(OC3CCN(C(=O)C4CC4)CC3)n2Cc2ccccc2)n(C)c1=O` [Compound 21, 7-benzyl-8-((1-(cyclopropanecarbonyl)piperidin-4-yl)oxy)-1,3-dimethyl-1H-purine-2,6(3H,7H)-dione] showed an IC50 of 214 ± 28 nM. Besides, in [4], the half-life at 1 µM was > 30 min.

`Cn1c(=O)c2[nH]c(OC3CCN(C(=O)C4CC4)CC3)nc2n(C)c1=O` [Compound 22, 8-((1-(cyclopropanecarbonyl)piperidin-4-yl)oxy)-1,3-dimethyl-1H-purine-2,6(3H,7H)-dione] gave an IC50 in [3] of 25100 ± 5900 nM. The half-life at 1 µM in data set [4] is > 30 min.

With `Cc1cccc(Cn2c(OC3CCN(C(=O)C4CC4)CC3)nc3c2c(=O)n(C)c(=O)n3C)c1` [Compound 34, 8-((1-(cyclopropanecarbonyl)piperidin-4-yl)oxy)-1,3-dimethyl-7-(3-methylbenzyl)-1H-purine-2,6(3H,7H)-dione], the IC50 in data set [3] is 84 ± 14 nM; in data set [7], > 57000 nM; in data set [8] it was 15300 nM. The same compound returned a half-life at 1 µM in [4] of 4 min.

As to `Cn1c(=O)c2c(nc(OC3CCN(C(=O)C4CC4)CC3)n2CCc2ccccc2)n(C)c1=O` [Compound 39, 8-((1-(cyclopropanecarbonyl)piperidin-4-yl)oxy)-1,3-dimethyl-7-phenethyl-1H-purine-2,6(3H,7H)-dione], in [3], the IC50 worked out at 629 ± 179 nM. In data set [4], this compound showed a half-life at 1 µM of 14 min.

`Cn1c(=O)c2c(nc(OC3CCN(C(=O)C4CC4)CC3)n2CCC2CCCCC2)n(C)c1=O` [Compound 54, 7-(2-cyclohexylethyl)-8-((1-(cyclopropanecarbonyl)piperidin-4-yl)oxy)-1,3-dimethyl-1H-purine-2,6(3H,7H)-dione]: the IC50 in data set [3] amounted to 30 ± 12 nM. The compound also registered a half-life at 1 µM in data set [4] of 1 min.

Take `CC(C)CCn1c(CN2CCN(C(=O)C3CC3)CC2)nc2c1c(=O)n(C)c(=O)n2C` [Compound 64, 8-((4-(cyclopropanecarbonyl)piperazin-1-yl)methyl)-7-isopentyl-1,3-dimethyl-1H-purine-2,6(3H,7H)-dione]: the half-life at 1 µM in data set [4] is > 30 min. Further, the gpcrMAX off-target activity entry in data set [9] is recorded as “very little activity in either agonist or antagonist mode”. Also, the “off-target kinase activity (KINOMEscan)” value in data set [10] is reported as “no significant hits”. This compound had a plasma protein binding in data set [11] of 68.6 % bound. In data set [12], the half-life is 17 min. In addition, in data set [7], the IC50 is > 57000 nM. Also, in data set [13] (brain, po, 10 mg/kg), the AUC(0-t) was 261 ng·h/mL, the peak level (Cmax) was 1130 ng/mL and the half-life is 24 min. In [13] (liver, po, 10 mg/kg), this compound had an AUC(0-t) of 1880 ng·h/mL, a Cmax of 2690 ng/mL and a half-life of 24 min. Besides, the half-life in data set [13] (plasma, intravenous, oral, intraperitoneal) was < 60 min. In data set [13] (plasma, ip, 30 mg/kg), this compound showed an AUC(0-t) of 5670 ng·h/mL, a Cmax of 8080 ng/mL, a bioavailability of 100% and a half-life of 42 min. Moreover, in data set [13] (plasma, iv, 2 mg/kg), the AUC(0-t) was 332 ng·h/mL, the C0 worked out at 2070 ng/mL, the Vd was 1.8 L/kg and the clearance is 98 mL/min/kg. The compound also gave a half-life in data set [13] (plasma, iv, 2 mg/kg) of 30 min. Also, in [13] (plasma, po, 10 mg/kg), the AUC(0-t) came to 484 ng·h/mL, the Cmax amounted to 696 ng/mL, the bioavailability was 29% and the half-life was 24 min. In [14], this compound returned a Papp A→B of 19.3 ×10⁻⁶ cm/s and a Papp B→A of 19.6 ×10⁻⁶ cm/s. For the same compound, in [15], the “in vitro stability in CD1 mouse plasma” value was > 60 min. Also, the “multipoint rat liver microsomal stability” value in data set [16] worked out at 84 min. In addition, the “human liver microsomal stability (HLM)” value in [17] was > 120 min.

The values are drawn from article PMC5185321 (Journal of medicinal chemistry, 2015).
